We go through 2 molecules from patent US7553860B2, “Substituted gamma lactams as therapeutic agents” (Allergan, Inc., priority 2006, dated 2009).

For test [1], the target named is T1, EP2 (Homo sapiens, UniProt P43116). The test can be described thus: EP2 cAMP. It is filed as cell-based.
The target in test [2] is T1, EP2. The test can be described thus: EP2 competition binding ([3H]PGE2), Ki. The settings on record: HEK 293 cells stably expressing human EP2, [3H]PGE2. On the set-up: expressed in transfected cells; host or cells: HEK 293. As to the method: Competition binding experiments are performed in a medium containing Hank's balanced salt solution, Hepes 20 mM, pH 7.3, membranes (˜60 μg protein) or 2×10^5 cells from HEK 293 cells stably expressing human EP2 receptors, [^3H]PGE2 (10 nM) and various concentrations of test compounds in a total volume of 300 μl. Reaction mixtures are incubated at 23° C. for 60 min, and are filtered over Whatman GF/B filters under vacuum. Filters are washed three times with 5 ml ice-cold buffer containing 50 mM Tris/HCl (pH 7.3). Non-specific binding is estimated in the presence of excess unlabeled PGE2 (10 μM). Binding data fitted to the binding model for a single class of binding sites, using nonlinear regression analysis. IC50 values thus obtained are converted to Ki using the equation of Ki=(IC50/(1+[L]/KD) where [L] represents PGE2 concentration (10 nM) and KD the dissociation constant for [^3H]PGE2 at human EP2 receptors (40 nM). […]
The cell homogenate is centrifuged at 19000 r.p.m. for 20 min at 4° C. using a Beckman Ti-60 rotor. The resultant pellet is resuspended in TME buffer to give a final 1 mg/ml protein concentration, as determined by Biorad assay. […]
[^3H-] […] 17-phenyl PGF2[…] and non-specific binding determined with 10^−5M of unlabeled PGE2, or 17-phenyl PGF2α, according to receptor subtype studied.

The target in another test is T2, hEP2/Gqs5 (Homo sapiens, UniProt P43116).
T2 construct: expressed in transfected cells; host or cells: HEK-293(EBNA)
T2 sequence (P43116 whole entry): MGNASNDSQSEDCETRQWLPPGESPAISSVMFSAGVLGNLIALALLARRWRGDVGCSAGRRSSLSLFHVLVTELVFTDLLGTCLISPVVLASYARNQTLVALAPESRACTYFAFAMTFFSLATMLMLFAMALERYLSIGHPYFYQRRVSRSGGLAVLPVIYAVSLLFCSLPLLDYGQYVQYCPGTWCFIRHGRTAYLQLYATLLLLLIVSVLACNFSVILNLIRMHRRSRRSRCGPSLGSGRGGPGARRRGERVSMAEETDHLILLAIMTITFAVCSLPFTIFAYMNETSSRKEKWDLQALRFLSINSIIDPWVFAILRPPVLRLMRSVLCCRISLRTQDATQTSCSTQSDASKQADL
The test can be described thus: EP2 FLIPR calcium signal. The class given is cell-based. Conditions: HEK-293(EBNA) cells. As to the method:
(§1) HEK-293(EBNA) cells, stably expressing one type or subtype of recombinant human prostaglandin receptors (prostaglandin receptors expressed: hDP/Gqs5; hEP1; hEP2/Gqs5; hEP3A/Gqi5; hEP4/Gqs5; hFP; hIP; hTP), are cultured in 100 mm culture dishes in high-glucose DMEM medium containing 10% fetal bovine serum, 2 mM I-glutamine, 250 μg/ml geneticin (G418) and 200 μg/ml hygromycin B as selection markers, and 100 units/ml penicillin G, 100 μg/ml streptomycin and 0.25 μg/ml amphotericin B.
(§2) Cells are seeded at a density of 5×10^4 cells per well in Biocoat® Poly-D-lysine-coated black-wall, clear-bottom 96-well plates (Becton-Dickinson) and allowed to attach overnight in an incubator at 37° C. Cells are then washed two times with HBSS-HEPES buffer (Hanks Balanced Salt Solution without bicarbonate and phenol red, 20 mM HEPES, pH 7.4) using a Denley Cellwash plate washer (Labsystems). […]
(§3) Cells are excited with an Argon laser at 488 nm, and emission is measured through a 510-570 nm bandwidth emission filter (FLIPR™, Molecular Devices, Sunnyvale, Calif.). […] The peak increase in fluorescence intensity is recorded for each well. […] The peak fluorescence change in each drug-containing well is then expressed relative to the controls. […]

The target of a further test is T3, hEP3A/Gqi5 (Homo sapiens, UniProt P43115).
T3 construct: expressed in transfected cells; host or cells: HEK-293(EBNA)
T3 sequence (P43115 1-390): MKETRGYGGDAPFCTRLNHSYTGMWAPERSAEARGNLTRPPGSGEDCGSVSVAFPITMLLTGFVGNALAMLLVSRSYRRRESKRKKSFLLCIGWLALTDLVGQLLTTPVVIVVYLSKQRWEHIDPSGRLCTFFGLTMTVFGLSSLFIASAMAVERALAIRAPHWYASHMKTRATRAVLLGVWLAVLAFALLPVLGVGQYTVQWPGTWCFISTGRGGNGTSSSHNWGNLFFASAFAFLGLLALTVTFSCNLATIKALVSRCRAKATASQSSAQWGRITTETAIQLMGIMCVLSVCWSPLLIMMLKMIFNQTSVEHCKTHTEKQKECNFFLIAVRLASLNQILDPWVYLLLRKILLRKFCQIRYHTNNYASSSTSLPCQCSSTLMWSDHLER
The test can be described thus: FLIPR calcium signal, hEP3A. It is filed as cell-based. Conditions: HEK-293(EBNA) cells; read-out: Other Receptors (EC50 in nM) hEP3A. The protocol:
as §1, §2, §3

The target in a further test is T4, hDP/Gqs5 (Homo sapiens, UniProt Q13258).
T4 construct: expressed in transfected cells; host or cells: HEK-293(EBNA)
T4 sequence (Q13258 1-359): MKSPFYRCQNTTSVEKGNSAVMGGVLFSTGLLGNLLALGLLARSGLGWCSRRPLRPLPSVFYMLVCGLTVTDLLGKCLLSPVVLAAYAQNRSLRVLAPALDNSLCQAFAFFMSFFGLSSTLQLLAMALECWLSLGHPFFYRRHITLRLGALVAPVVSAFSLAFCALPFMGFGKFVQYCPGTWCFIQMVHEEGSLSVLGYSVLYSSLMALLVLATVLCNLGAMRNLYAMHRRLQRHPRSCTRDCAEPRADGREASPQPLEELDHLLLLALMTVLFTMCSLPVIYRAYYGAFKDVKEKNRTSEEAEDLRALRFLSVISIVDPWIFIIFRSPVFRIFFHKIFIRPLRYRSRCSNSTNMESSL
The test can be described thus: FLIPR calcium signal, hDP. The class given is cell-based. Conditions: HEK-293(EBNA) cells; read-out: Other Receptors (EC50 in nM) hDP. The protocol: as §1, §2, §3

Where only a bound is given, the exact number is not on record here.

T1 sequence (P43116 whole entry): as the sequence (P43116 whole entry) above

Take `CCCCCC(F)c1ccc(N2C(=O)OC[C@@H]2COCc2ccc(C(=O)O)s2)cc1` (stereo partly drawn) [5-{(S)-3-[4-(1-Fluoro-hexyl)-phenyl]-2-oxo-oxazolidin-4-ylmethoxymethyl}-thiophene-2-carboxylic acid]: it took 13 nM to reach a half-maximal effect on EP2 [1] (EC50). The molecule further gave an inhibition constant (Ki) at EP2 [2] of 1040 nM.

With `CCCCCC(O)c1ccc(N2C(=O)OC[C@@H]2COCc2ccc(C(=O)O)s2)cc1` (stereo partly drawn) [5-{(S)-3-[4-(1-Hydroxy-hexyl)-phenyl]-2-oxo-oxazolidin-4-ylmethoxymethyl}-thiophene-2-carboxylic acid], the EC50 at hEP2/Gqs5 is 817 nM; on EP2 [1] it was 14 nM; on hEP3A/Gqi5 it was 995 nM; on hDP/Gqs5 it was above 10000 nM. Further, affinity on EP2 [2] was put at a Ki of 2710 nM.

The term EC50 denotes the midpoint of the concentration-response curve. In general, Ki refers to the equilibrium dissociation constant of an inhibitor or competing ligand from its target. The low end stands for higher affinity, the high end for lower affinity.
